This note sets out measurements from patent US6132740A, “Resorcinol derivatives” (Pfizer Inc., priority 1998, dated 2000).

As usually defined, the IC50 is the concentration at which inhibition is half-maximal. Lower therefore signals greater potency.

One experiment has as its system black guinea pigs. The experiment is described as follows: In vivo depigmentation study in black guinea pigs. On the set-up: species or system guinea pig. Conditions: for depigmentation of skin (in words): 5% in ethanol:propylene glycol 70:30, twice daily, 5 days per week for 4-8 weeks, black or dark brown guinea pigs; for reduction of pigmentation in treated ears (in words) / reversibility of the depigmentation effect (in words) / Depigmentation effect, Δ light reflectance (treated ear - untreated ear), 1 week post-treatment / Depigmentation effect, Δ light reflectance (treated ear - untreated ear), 3-week / Depigmentation effect, Δ light reflectance (treated ear - untreated ear), 6-week / Depigmentation effect, Δ light reflectance (treated ear - untreated ear), 8.5 week: 5% in ethanol:propylene glycol (70:30); for reduction of pigmentation in treated ears (in words) / reversibility of the depigmentation effect (in words): ears of black guinea pigs; for reversibility of the depigmentation effect (in words): after ceasing treatment; for Depigmentation effect, Δ light reflectance (treated ear - untreated ear), 1 week post-treatment / Depigmentation effect, Δ light reflectance (treated ear - untreated ear), 3-week / Depigmentation effect, Δ light reflectance (treated ear - untreated ear), 6-week / Depigmentation effect, Δ light reflectance (treated ear - untreated ear), 8.5 week: topical to ears of black guinea pigs, one value per animal; for Depigmentation effect, Δ light reflectance (treated ear - untreated ear), 3-week / Depigmentation effect, Δ light reflectance (treated ear - untreated ear), 6-week / Depigmentation effect, Δ light reflectance (treated ear - untreated ear), 8.5 week: positive value indicates depigmentation. As for the experimental part:
Black or dark brown guinea pigs with homogeneous skin color can be used in this study. A solution of the test compound of formula I (5% in ethanol:propylene glycol, 70:30) and the vehicle control are applied to the animals twice daily, 5 days per week for 4-8 weeks.
In vivo experiments were carried out to determine the depigmenting effects of 4-cyclohexylresorcinol and 4-cyclopentylresorcinol using the assay described above (in vivo study). Thus, 5% 4-cyclohexylresorcinol and 5% 4-cyclopentylresorcinol, each in ethanol:propylene glycol (70:30), were administered separately to the ears of black guinea pigs. Depigmentation was determined by subtracting the light reflectance of untreated ears from the light reflectance of treated ears.

The target in another experiment is T1, human tyrosinase (Homo sapiens, UniProt P14679).
T1 construct: endogenous in cells; host or cells: SKMEL 188 human melanoma cell line (licensed from Memorial Sloan-Kettering), lysate
T1 sequence (P14679 19-529): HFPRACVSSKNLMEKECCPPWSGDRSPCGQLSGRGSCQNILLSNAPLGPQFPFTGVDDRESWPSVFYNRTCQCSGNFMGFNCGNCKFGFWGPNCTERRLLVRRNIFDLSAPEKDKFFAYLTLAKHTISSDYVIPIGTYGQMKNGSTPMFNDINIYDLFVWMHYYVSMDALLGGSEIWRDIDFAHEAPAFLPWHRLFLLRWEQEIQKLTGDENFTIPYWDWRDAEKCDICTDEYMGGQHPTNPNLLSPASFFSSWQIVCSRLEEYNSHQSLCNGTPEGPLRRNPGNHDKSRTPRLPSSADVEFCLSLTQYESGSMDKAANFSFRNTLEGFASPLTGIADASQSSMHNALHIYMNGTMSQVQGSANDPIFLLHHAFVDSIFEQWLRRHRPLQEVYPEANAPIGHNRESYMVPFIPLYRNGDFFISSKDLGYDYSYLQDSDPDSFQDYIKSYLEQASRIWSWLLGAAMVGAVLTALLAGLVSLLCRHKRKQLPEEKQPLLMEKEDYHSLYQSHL
The experiment is described as follows: Tyrosinase (DOPA oxidase) assay using cell lysate. Type of experiment: biochemical. Conditions: SKMEL 188 human melanoma cell lysate, L-DOPA 100 μg/ml, 8 hours, read at 405 nm. As to the method: 1. Tyrosinase (DOPA oxidase) Assay Using Cell Lysate:
Human melanoma cell line, SKMEL 188 (licensed from Memorial Sloan-Kettering), is used in the cell lysate assay and the screen. In the assay, compounds and L-dihydroxyphenylalanine (L-DOPA) (100 μg/ml) are incubated with the cell lysates containing human tyrosinase for 8 hours before the plates are read at 405 nm. Potency of the compounds in DOPA oxidase assay is correlated very well with that in tyrosine hydroxylase assay using 3H-tyrosine as a substrate.

Several values for one entry are separate records, joined by “and”; a condition that tells them apart may be missing. Equal entries are not always repeated.

As for `Oc1ccc(C2CCCCC2)c(O)c1` [4-cyclohexylresorcinol, 4-Cyclohexylresorcinol], in the experiment on black guinea pigs, the “depigmentation of skin (in words)” value is “depigmentation of skin was visualized”; the “reduction of pigmentation in treated ears (in words)” value is on record as “reduced pigmentation in treated ears starting 3 weeks after initial treatment”; the “reversibility of the depigmentation effect (in words)” value was “reversible, and repigmentation partially resumed one week after ceasing treatment”; the “Depigmentation effect, Δ light reflectance (treated ear - untreated ear), 1 week post-treatment” value was 1 and 0. In the experiment with black guinea pigs, the “Depigmentation effect, Δ light reflectance (treated ear - untreated ear), 3-week” value is 13 and 0 and 14 and 3; the “Depigmentation effect, Δ light reflectance (treated ear - untreated ear), 6-week” value is 8 and 0 and 14 and 7; the “Depigmentation effect, Δ light reflectance (treated ear - untreated ear), 8.5 week” value was 6 and 7 and 19. On human tyrosinase, this molecule registered a half-maximal inhibitory concentration (IC50) of 300 nM.
Take `Oc1ccc(C2CCCC2)c(O)c1` [4-cyclopentylresorcinol, 4-Cyclopentylresorcinol]: in the experiment on black guinea pigs, the “depigmentation of skin (in words)” value was “depigmentation of skin was visualized”; the “reduction of pigmentation in treated ears (in words)” value is “reduced pigmentation in treated ears starting 3 weeks after initial treatment”; the “reversibility of the depigmentation effect (in words)” value was “reversible, and repigmentation partially resumed one week after ceasing treatment”; the “Depigmentation effect, Δ light reflectance (treated ear - untreated ear), 1 week post-treatment” value came out at 6. Besides, in the experiment on black guinea pigs, the “Depigmentation effect, Δ light reflectance (treated ear - untreated ear), 3-week” value is 15 and 9 and 4; the “Depigmentation effect, Δ light reflectance (treated ear - untreated ear), 6-week” value was 12 and 9; the “Depigmentation effect, Δ light reflectance (treated ear - untreated ear), 8.5 week” value was 10 and 18 and 7.
